In BigSolDB 2.1:

O=C(O)c1cccnc1Cl
solubility (mole fraction)
Details	273.15 K	278.15 K	283.15 K	288.15 K	293.15 K	298.15 K	303.15 K	308.15 K	313.15 K
in 1,4-dioxane	–	–	–	0.0088	0.0103	0.012	0.0136	0.0155	0.0176
in DMF	0.124	0.149	0.175	0.2	0.228	0.26	0.291	0.327	0.367
in NMP	0.206	0.235	0.265	0.295	0.328	0.36	0.397	0.437	0.478
in acetone	0.00893	0.0103	0.0118	0.0133	0.0149	0.0166	0.0184	0.0205	0.0226
in acetonitrile	0.00105	0.00137	0.00174	0.00214	0.00263	0.00324	0.00399	–	–
in ethanol	0.00286	0.00363	0.00461	0.00563	0.00676	0.00804	0.00953	0.0112	0.0129
in ethyl acetate	0.0138	0.0163	0.0189	0.0218	0.0246	0.0276	0.0308	0.0344	0.0382
in isopropanol	0.00368	0.00464	0.00574	0.00697	0.0083	0.00972	0.0113	0.013	0.0147
in methanol	0.00227	0.00283	0.00347	0.00422	0.00505	0.00598	0.00696	0.00806	0.00927
in n-propanol	0.00446	0.00546	0.00667	0.00792	0.00933	0.011	0.0125	0.0144	0.0162
in water	9.1e-05	0.000104	0.00012	0.000136	0.000153	0.000171	0.000191	0.000216	0.000242
